# Experimental data from patent US6706663B2, “Herbicidal 3-heterocyclic substituted benzisothiazole and benzisoxazole compounds” (Wyeth, priority 2000, dated 2004).
# Legend:
# [1] = system: IPOHE (Ipomoea hederacea); test: Preemergence herbicidal evaluation; type: in vivo, (L.) Jacq.; conditions: rated 4-5 weeks after treatment
# SETVI (Setaria viridis) [2] = test: Preemergence herbicidal evaluation; type: in vivo, (L.) Beau; conditions: rated 4-5 weeks after treatment
# Method in brief: (§1)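 Test compound is applied in aqueous acetone to cups just after seeding. Cups are watered and maintained on greenhouse benches. Each cup is scored 0–9 by eye relative to a control after four to five weeks.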
# [3] = system: ECHCG (Echinochloa crus-galli); test: Preemergence herbicidal evaluation; type: in vivo, (L.) Beau; conditions: rated 4-5 weeks after treatment
# Method in brief: as §1
# CYPIR (Cyperus iria) = test: Flooded paddy, preemergence weed control; type: in vivo; conditions: rated 3-4 weeks after treatment, 0-9 rating scale
# Method in brief: (§2)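 Visual 0-9 rating versus control, scoring stand, vigor, malformation, size, chlorosis and overall appearance. Silt loam soil, propagules in top 0.5 cm; flood depth 1.5–3 cm held for the whole test; greenhouse.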
# [4] = system: IPOHE (Ipomoea hederacea); test: Postemergence herbicidal evaluation; type: in vivo, (L.) Jacq.
# Method in brief: (§3)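 Seedlings grown for about two weeks were sprayed postemergence and then kept under standard greenhouse care. Injury was rated visually 4–5 weeks after treatment on a 0–9 scale against untreated controls, and ratings from repeat tests were averaged.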
# [5] = system: SAGPY (Sagittaria pygmaea); test: Flooded paddy, preemergence weed control; type: in vivo, L.; conditions: rated 3-4 weeks after treatment, 0-9 rating scale
# Method in brief: as §2
# [6] = system: GLXMAW (Soybean, Williams); test: Postemergence herbicidal evaluation; type: in vivo, Glycine max, (L.) Merr. cv Williams
# Method in brief: as §3
# GALAP (Galium aparine) = test: Postemergence herbicidal evaluation; type: in vivo
# Method in brief: as §3
# [7] = system: ECHORC (Echinochloa oryzoides); test: Flooded paddy, preemergence weed control; type: in vivo, Echinochloa oryzoides (Ard.) Fritsch.; conditions: rated 3-4 weeks after treatment, 0-9 rating scale
# Method in brief: as §2
# ORYSAT (Rice, Tebonnet) [8] = test: Postemergence herbicidal evaluation; type: in vivo, Oryza sativa, (L.) Tebonnet
# Method in brief: as §3
# [9] = system: MOOVA (Monochoria vaginalis); test: Flooded paddy, preemergence weed control; type: in vivo, Presl.; conditions: rated 3-4 weeks after treatment, 0-9 rating scale
# Method in brief: as §2
# ORYSAT (Rice, Tebonnet) [10] = test: Preemergence herbicidal evaluation; type: in vivo, Oryza sativa, (L.) Tebonnet; conditions: rated 4-5 weeks after treatment
# [11] = system: CHEAL (Chenopodium album); test: Preemergence herbicidal evaluation; type: in vivo, L.; conditions: rated 4-5 weeks after treatment
# Method in brief: as §1
# [12] = system: CASOB (Cassia obtusifolia); test: Preemergence herbicidal evaluation; type: in vivo, L.; conditions: preemergence, rated 4-5 weeks after treatment
# Method in brief: as §1
# [13] = system: AMBEL (Ambrosia artemisifolia); test: Preemergence herbicidal evaluation; type: in vivo, L.; conditions: rated 4-5 weeks after treatment
# Method in brief: as §1
# ZEAMX (Corn, Field) = test: Postemergence herbicidal evaluation; type: in vivo, Zea mays, L.
# Method in brief: as §3
# SETVI (Setaria viridis) [14] = test: Postemergence herbicidal evaluation; type: in vivo, (L.) Beau
# Method in brief: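 Ratings use a 0-9 visual scale covering stand, vigor, malformation, size, chlorosis and appearance versus a control, scored 4-5 weeks post-spray. Roughly two-week-old seedlings received about 0.0040-1.000 kg/ha active, applied in 50/50 acetone/water with 0.5% TWEEN 20. Multiple tests per compound were averaged.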
# [15] = system: ECHCG (Echinochloa crus-galli); test: Postemergence herbicidal evaluation; type: in vivo, (L.) Beau
# Method in brief: as §3
# [16] = system: ABUTH (Abutilon theophrasti); test: Postemergence herbicidal evaluation; type: in vivo, Medic.
# Method in brief: as §3
# ORYSAT (Rice, Tebonnet) [17] = test: Flooded paddy, post-transplant rice tolerance; type: in vivo, Oryza sativa, (L.) Tebonnet; conditions: flooded paddy, post-transplant rice, rated 3-4 weeks after treatment, 0-9 rating scale
# Method in brief: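 Seedlings aged ten days are transplanted in pairs into undrained pots of silt loam, which are then flooded to a depth of 1.5 to 3 cm. After herbicide application the pots are kept in a greenhouse with the flood maintained. Plants are rated 0-9 by visual comparison with controls.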
structure (smiles),measurement,setting,value
"C#CCOC(=O)COc1ccsc1-c1nsc2ccc(-n3c(=O)cc(C(F)(F)F)n(C)c3=O)cc12 [Compound 39, 2-propynyl [[2-[5-[3,6-dihydro-3-methyl-2,6-dioxo-4-(trifluoromethyl)-1(2H)-pyrimidinyl]-1,2-benzisothiazol-3-yl]-3-thienyl]oxy]acetate]",Preemergence herbicidal rating IPOHE,[1]; Rate 0.0620 kg/ha,0.0
same,IPOHE preemergence herbicidal rating,[1]; Rate 0.1250 kg/ha,0.0
same,IPOHE preemergence herbicidal rating,[1]; Rate 0.2500 kg/ha,1.0
same,Preemergence herbicidal rating SETVI,SETVI (Setaria viridis) [2]; Rate 0.0620 kg/ha,0.0
same,SETVI preemergence herbicidal rating,SETVI (Setaria viridis) [2]; Rate 0.1250 kg/ha,1.0
same,SETVI preemergence herbicidal rating,SETVI (Setaria viridis) [2]; Rate 0.2500 kg/ha,6.0
same,Preemergence herbicidal rating ECHCG,[3]; Rate 0.0620 kg/ha,0.0
same,ECHCG preemergence herbicidal rating,[3]; Rate 0.1250 kg/ha,0.0
same,ECHCG preemergence herbicidal rating,[3]; Rate 0.2500 kg/ha,0.0
same,"herbicidal rating, CYPIR",CYPIR (Cyperus iria); rate 0.0320 kg/ha,5.0
same,"herbicidal rating, CYPIR",CYPIR (Cyperus iria); rate 0.1250 kg/ha,5.0
same,"Postemergence herbicidal rating, IPOHE",[4]; rate 0.0320 kg/ha,4.0
same,"Postemergence herbicidal rating, IPOHE",[4]; rate 0.0620 kg/ha,4.0
same,"herbicidal rating, SAGPY",[5]; rate 0.0320 kg/ha,0.0
same,"herbicidal rating, SAGPY",[5]; rate 0.1250 kg/ha,3.0
same,"Postemergence herbicidal rating, GLXMAW",[6]; rate 0.0320 kg/ha,5.0
same,"Postemergence herbicidal rating, GLXMAW",[6]; rate 0.0620 kg/ha,5.0
same,"Postemergence herbicidal rating, GALAP",GALAP (Galium aparine); rate 0.0320 kg/ha,0.0
same,"Postemergence herbicidal rating, GALAP",GALAP (Galium aparine); rate 0.0620 kg/ha,1.0
same,"herbicidal rating, ECHORC",[7]; rate 0.0320 kg/ha,0.0
same,"herbicidal rating, ECHORC",[7]; rate 0.1250 kg/ha,0.0
same,"Postemergence herbicidal rating, ORYSAT","ORYSAT (Rice, Tebonnet) [8]; rate 0.0320 kg/ha",1.5
same,"Postemergence herbicidal rating, ORYSAT","ORYSAT (Rice, Tebonnet) [8]; rate 0.0620 kg/ha",2.0
same,"herbicidal rating, MOOVA",[9]; rate 0.0320 kg/ha,9.0
same,"herbicidal rating, MOOVA",[9]; rate 0.1250 kg/ha,9.0
same,Preemergence herbicidal rating ORYSAT,"ORYSAT (Rice, Tebonnet) [10]; Rate 0.0620 kg/ha",0.0
same,ORYSAT preemergence herbicidal rating,"ORYSAT (Rice, Tebonnet) [10]; Rate 0.1250 kg/ha",0.0
same,ORYSAT preemergence herbicidal rating,"ORYSAT (Rice, Tebonnet) [10]; Rate 0.2500 kg/ha",1.0
same,Preemergence herbicidal rating CHEAL,[11]; Rate 0.0620 kg/ha,5.0
same,CHEAL preemergence herbicidal rating,[11]; Rate 0.1250 kg/ha,9.0
same,CHEAL preemergence herbicidal rating,[11]; Rate 0.2500 kg/ha,9.0
same,CASOB preemergence herbicidal rating,[12]; Rate 0.1250 kg/ha,0.0
same,CASOB preemergence herbicidal rating,[12]; Rate 0.2500 kg/ha,0.0
same,Preemergence herbicidal rating AMBEL,[13]; Rate 0.0620 kg/ha,0.0
same,AMBEL preemergence herbicidal rating,[13]; Rate 0.1250 kg/ha,0.0
same,AMBEL preemergence herbicidal rating,[13]; Rate 0.2500 kg/ha,0.0
same,"Postemergence herbicidal rating, ZEAMX","ZEAMX (Corn, Field); rate 0.0320 kg/ha",4.5
same,"Postemergence herbicidal rating, ZEAMX","ZEAMX (Corn, Field); rate 0.0620 kg/ha",5.0
same,"Postemergence herbicidal rating, SETVI",SETVI (Setaria viridis) [14]; rate 0.0320 kg/ha,0.0
same,"Postemergence herbicidal rating, SETVI",SETVI (Setaria viridis) [14]; rate 0.0620 kg/ha,3.0
same,"Postemergence herbicidal rating, ECHCG",[15]; rate 0.0320 kg/ha,0.0
same,"Postemergence herbicidal rating, ECHCG",[15]; rate 0.0620 kg/ha,1.0
same,"Postemergence herbicidal rating, ABUTH",[16]; rate 0.0320 kg/ha,2.0
same,"Postemergence herbicidal rating, ABUTH",[16]; rate 0.0620 kg/ha,9.0
same,"herbicidal rating, ORYSAT (rice tolerance)","ORYSAT (Rice, Tebonnet) [17]; rate 0.0320 kg/ha",0.0
same,"herbicidal rating, ORYSAT (rice tolerance)","ORYSAT (Rice, Tebonnet) [17]; rate 0.1250 kg/ha",4.0
